# Source: patent US12076363B2, “Peptide epoxyketone proteasome inhibitors in combination with PIM kinase inhibitors for treatment of cancers” (ONYX PHARMACEUTICALS, INC., priority 2013, dated 2024)
# Columns and labels:
# PIM-2 [1] = assay: PIM-2 ubiquitination (K-ε-GG ubiquitin remnant profiling) after proteasome inhibitor treatment, U266 cells; format: cell-based; settings: PIM-2 lysine 61; U266 (4 hr); 125 nM; vs DMSO control
# Experimental: (§1) Multiple myeloma cells were used to identify pro-survival proteins that were stabilized upon carfilzomib exposure by monitoring an increase in ubiquitination at specific sites associated with degradation. Two multiple myeloma cell lines, U266 and NCI-H929, were treated for 1 and 4 hours at 125 nM concentration of carfilzomib and bortezomib. DMSO treated cells were used as a control. The concentrations of active agents used were set at the IC80 of chymotrypsin activity inhibition and 48 hr cytotoxicity. The subunit inhibition profile obtained for these concentrations in vitro mimicked the subunit inhibition profile for carfilzomib in patients treated with a dose of 27 mg/m^2. Washed cell pellets were processed and profiled for ubiquitin modified proteins using a specific di-glycine antibody (PTMScan® Ubiquitin Remnant Motif (K-ε-GG) Kit #5562) that recognizes all lysine ubiquitin linkages on ubiquitin ligase substrates. All lysines on a protein that are modified with ubiquitin can be identified by this approach, and the lysines distal from the phosphorylation sites can then be associated with degradation. […] The increase in ubiquitin was also time dependent in NCI-H929 (Table 1).
# PIM-2 [2] = assay: PIM-2 ubiquitination (K-ε-GG ubiquitin remnant profiling) after proteasome inhibitor treatment, NCI-H929 cells; format: cell-based; settings: PIM-2 lysine 61, 125 nM, vs DMSO control
# Experimental: as §1
SMILES,Ubiquitin fold increases (PIM-2 [1]),Ubiquitin fold increases (PIM-2 [2]; H929 (1 hr)),Ubiquitin fold increases (PIM-2 [2]; H929 (4 hr))
"CC(C)C[C@H](NC(=O)[C@H](Cc1ccccc1)NC(=O)c1cnccn1)B(O)O [BTZ, bortezomib]",31.5 fold,11 fold,21.4 fold
"CC(C)C[C@H](NC(=O)[C@H](CCc1ccccc1)NC(=O)CN1CCOCC1)C(=O)N[C@@H](Cc1ccccc1)C(=O)N[C@@H](CC(C)C)C(=O)[C@@]1(C)CO1 [CFZ, carfilzomib]",34.6 fold,10.7 fold,24.9 fold
